In PubChem BioAssay (NCI):
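48-hour exposure; five concentrations; linearly interpolated endpoints. Definition used: TGI = concentration required for complete inhibition of growth.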

How the values were obtained:
Assay in all cases: NCI tumour cell line growth inhibition, 48 h
RXF-631 renal = tested on: RXF-631 renal
CAKI-1 renal = tested on: CAKI-1 renal
T-47D breast = tested on: T-47D breast
MDA-MB-435 = tested on: MDA-MB-435
MDA-MB-231 breast = tested on: MDA-MB-231 breast
BT-549 breast = tested on: BT-549 breast
DU-145 prostate = tested on: DU-145 prostate
PC-3 prostate = tested on: PC-3 prostate
MDA-N = tested on: MDA-N
P388/ADR leukemia = tested on: P388/ADR leukemia
P388 leukemia = tested on: P388 leukemia

`CC(=O)c1cccc(NC(=O)C(=O)C(C(=O)c2ccccc2F)C2OC(=O)c3ccccc32)c1` (stereo unspecified) was tested, and the TGI (RXF-631 renal) was > 100 µM and the TGI (CAKI-1 renal) was > 100 µM.

`O=C1CCc2cc3c(cc21)CC1(Cc2cc4c(cc2C1)CCCC4)C3` was tested, and the TGI (T-47D breast) was > 100 µM, the TGI (MDA-MB-435) was 51 µM and the TGI (MDA-MB-231 breast) was > 100 µM. For the same compound, the TGI (BT-549 breast) was > 100 µM, the TGI (DU-145 prostate) was > 100 µM and the TGI (PC-3 prostate) was > 100 µM. For the same compound, the TGI (MDA-N) was 39.4 µM.

`ClCc1ccc2ccc3ccc(CCl)nc3c2n1` showed a TGI (P388/ADR leukemia) of 5.07 µM and a TGI (P388 leukemia) of 7.32 µM.
